The text below walks through data of patent publication US20230405003A1, “APPLICATION OF THYMIDINE DERIVATIVE IN PREPARATION OF DRUGS” (ONQUALITY PHARMACEUTICALS CHINA LTD., priority 2020, published 2023).

In one series the test system is HaCaT cells. As to the kind of experiment: Relief of 5-FU proliferative toxicity to HaCaT cells (CCK-8 cell survival). The format is cell-based. As to conditions: for activation at 10 µM: compound 10 μM; for activation at 100 µM: compound 100 μM; for activation at 500 µM: compound 500 μM; for activation at 1000 µM: compound 1000 μM; for activation at 1 µM: compound 1 μM; for Cell Survival Rate (increased percentage of cell survival compared with the Group of 5-FU): 5-Fu 20 μM, HaCaT cells. Put shortly:
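HaCaT keratinocytes (5000–10000/well) cultured 24 h, then exposed 48 h to 5-FU alone or with thymidine derivative, or thymidine plus uridine derivative mix, versus solvent-matched blanks. Survival by CCK-8; value is % increase in survival over 5-FU alone, t-test.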

Series [1] has as its system hand-foot syndrome caused by Acelarin (NUC-1031) in rats. The series is described as follows: Rat model of hand-foot syndrome caused by Acelarin (NUC-1031), gel application. The format is in vivo. To be noted: Acelarin (NUC-1031) 130 mg/kg intraperitoneal injection twice a week, gel 3 wt%, 30 days. The procedure: After SD rats were fed and adapted for one week (about 200 g), the rats were divided into groups, with 10 rats in each group. Then, the rats were subject to gavage administration. Capecitabine was dissolved in a 1:1 mixed solution of castor oil and ethanol and diluted for three times with PBS buffer. After gavage, the rats were fixed with a fixed cylinder, and a gel of thymidine derivative (or a compounded gel of thymidine derivative and uridine derivative) was applied to double hind paws (about 1 cm*3 cm) of the rats in group of administration (the types and concentrations are shown in Table 4), and a blank gel was applied to the group of blank (as a blank control). After approximately 4 hours of application, the rats were released after 4 hours, wiped with clean water to remove any residual drug at the application site, and allowed back to the cage. The thymidine derivative gel (or the compounded gel of thymidine derivative and uridine derivative) was administered with gavage every day. The gavage and application tests are repeated daily until the group of blank has developed obvious hand-foot syndrome.
The effects of thymidine derivative or a combination of thymidine derivative and uridine derivative on the chemotherapeutic drug-induced hand-foot syndrome in a rat model were tested according to the method in Examples 30-40. At the same time, paws of rats after treatment with the drug were taken and observed for their inflammation by hematoxylin-eosin staining (HE) and immunohistochemical staining (IHC).
The test thymidine derivative or the combination of thymidine derivative and uridine derivative, as well as the final concentration of the test compounds were shown in Table 8. Table 8 lists the animal experiment combination of a chemotherapeutical drug and the thymidine derivative gel (or the compound gel of thymidine derivative and uridine derivative) and the corresponding experimental results (wherein, the data in the column of control rate=the occurrence rate of hand-foot syndrome in Group of blank—the occurrence rate of hand-foot syndrome in Group of administration).

The mark [2] stands for this setting: Homo sapiens, HaCaT, increase vs Group of 5-FU, 5-FU 20 μM, 48 h, read-out: Cell Survival Rate.
The mark [3] stands for this setting: selected compound final concentration 1.6 μM.
The mark [4] stands for this setting: selected compound final concentration 3.13 μM.
The mark [5] stands for this setting: selected compound final concentration 6.25 μM.
[6] abbreviates: selected compound final concentration 12.5 μM.
Setting [7] is: selected compound final concentration 25 μM.
[8] abbreviates: selected compound final concentration 50 μM.
[9] abbreviates: selected compound final concentration 0.8 μM.

On to `CC(=O)OCC1OC(n2cc(C)c(=O)[nH]c2=O)CC1OC(C)=O` (stereo not drawn) [T1], for which, in the series with HaCaT cells (Homo sapiens, HaCaT, increase vs Group of 5-FU, 5-FU 20 μM, compound 5 μM, 48 h, read-out: Cell Survival Rate), the activation at 5 µM lay in the range of 1 to 6%. In the series with HaCaT cells (setting [2]), the activation at 10 µM lay in the range of 10 to 16%, the activation at 100 µM fell in the range of 31 to 37%, the activation at 500 µM is 36 to 41% and the activation at 1000 µM was 35 to 42%. Moreover, the activation at 50 µM in the series on HaCaT cells (Homo sapiens, HaCaT, increase vs Group of 5-FU, 5-FU 20 μM, compound 50 μM, 48 h, read-out: Cell Survival Rate) fell in the range of 21 to 26%. Moreover, the activation at 200 µM in the series on HaCaT cells (Homo sapiens, HaCaT, increase vs Group of 5-FU, 5-FU 20 μM, compound 200 μM, 48 h, read-out: Cell Survival Rate) is 42 to 48%. Further, the activation at 1500 µM with HaCaT cells (Homo sapiens, HaCaT, increase vs Group of 5-FU, 5-FU 20 μM, compound 1500 μM, 48 h, read-out: Cell Survival Rate) is 29 to 33%. In the series with HaCaT cells (Homo sapiens, HaCaT, increase vs Group of 5-FU, 5-FU 20 μM, compound 3000 μM, 48 h, read-out: Cell Survival Rate), the activation at 3000 µM is 17 to 23%.

As for `CC(=O)O[C@H]1C[C@H](n2cc(C)c(=O)[nH]c2=O)O[C@@H]1CO` [T2], in the series on HaCaT cells (setting [2]), the activation at 1 µM was in the range of 14 to 18%, the activation at 10 µM lay in the range of 35 to 45%, the activation at 100 µM was 70 to 80% and the activation at 500 µM fell in the range of 75 to 85%. Moreover, the activation at 1000 µM in the series with HaCaT cells (setting [2]) lay within 60 to 70%.

As for `CC(=O)OC[C@H]1O[C@@H](n2cc(C)c(=O)[nH]c2=O)C[C@@H]1O` [T3], in the series with HaCaT cells (setting [2]), the activation at 1 µM lay within 13 to 18%, the activation at 10 µM fell in the range of 30 to 38%, the activation at 100 µM was in the range of 80 to 86% and the activation at 500 µM lay within 69 to 75%. Also, in the series on HaCaT cells (setting [2]), the activation at 1000 µM lay within 58 to 65%.

Take `COc1ccc2cc([C@H](C)C(=O)OC[C@H]3O[C@@H](n4cc(C)c(=O)[nH]c4=O)C[C@@H]3O)ccc2c1` [T25]: in series [1], the “Control Rate Forepaws” value is listed as 57.14% and the “Control Rate Hindpaws” value is 42.86%.

`Cc1cn([C@H]2C[C@H](O)[C@@H](COC(=O)C(C)c3cccc(Oc4ccccc4)c3)O2)c(=O)[nH]c1=O` (stereo partly drawn) [T27, ((2R,3S, 5R)-3-hydroxyl-5-(5-methyl-2,4-dioxy-3,4-dihydropyrimidin-1(2H)-yl)tetrahydrofuran-2-yl)2-(3-phenoxyphenyl)propionate Methyl]: the “Cell Survival Rate (increased percentage of cell survival compared with the Group of 5-FU)” value was 39%-45% with HaCaT cells (setting [3]); 51%-58% in the series on HaCaT cells (setting [4]); 54%-61% in the series on HaCaT cells (setting [5]); 51%-59% in the series with HaCaT cells (setting [6]); 49%-57% in the series on HaCaT cells (setting [7]); 46%-53% in the series on HaCaT cells (setting [8]).

On to `Cc1cn([C@H]2C[C@H](O)[C@@H](COC(=O)[C@H](C)c3ccc(CC(C)C)cc3)O2)c(=O)[nH]c1=O` [T32], for which the “Cell Survival Rate (increased percentage of cell survival compared with the Group of 5-FU)” value with HaCaT cells (setting [4]) is reported as 35%-41%; with HaCaT cells (setting [5]), 29%-36%; in the series on HaCaT cells (setting [6]), 46%-52%; in the series on HaCaT cells (setting [7]) it was 53%-60%; with HaCaT cells (setting [8]), 59%-66%; with HaCaT cells (selected compound final concentration 100 μM), 78%-85%. Besides, the “Control Rate Forepaws” value in series [1] was determined as 50%. In addition, the “Control Rate Hindpaws” value in series [1] is 62.50%.

On to `Cc1ccc(C(=O)c2ccc(CC(=O)OC[C@H]3O[C@@H](n4cc(C)c(=O)[nH]c4=O)C[C@@H]3O)n2C)cc1` [T36], for which the “Cell Survival Rate (increased percentage of cell survival compared with the Group of 5-FU)” value in the series with HaCaT cells (setting [4]) was 27%-35%; in the series on HaCaT cells (setting [5]) it was 38%-46%; in the series on HaCaT cells (setting [6]), 52%-60%; in the series with HaCaT cells (setting [7]), 53%-61%; in the series on HaCaT cells (setting [8]), 49%-57%.

Turning to `CC1=C(CC(=O)OC[C@H]2O[C@@H](n3cc(C)c(=O)[nH]c3=O)C[C@@H]2O)c2cc(F)ccc2/C1=C\c1ccc([S+](C)[O-])cc1` (stereo partly drawn) [T40], the “Cell Survival Rate (increased percentage of cell survival compared with the Group of 5-FU)” value with HaCaT cells (setting [9]) is listed as 42%-50%; with HaCaT cells (setting [3]) it was 57%-65%; with HaCaT cells (setting [4]), 45%-52%; with HaCaT cells (setting [5]), 47%-56%; with HaCaT cells (setting [6]), 49%-54%; in the series on HaCaT cells (setting [7]) it was 58%-65%. For the same compound, the “Cell Survival Rate (increased percentage of cell survival compared with the Group of 5-FU)” value in the series with HaCaT cells (setting [8]) is listed as 48%-55%. In addition, in series [1], the “Control Rate Forepaws” value came to 50%. In series [1], the “Control Rate Hindpaws” value amounted to 62.50%.

As to `Cc1ccc(C(=O)c2ccc(CC(=O)O[C@H]3C[C@H](n4cc(C)c(=O)[nH]c4=O)O[C@@H]3CO)n2C)cc1` [T45], the “Cell Survival Rate (increased percentage of cell survival compared with the Group of 5-FU)” value is 34%-41% in the series with HaCaT cells (setting [9]); 39%-46% in the series with HaCaT cells (setting [3]); 63%-70% with HaCaT cells (setting [4]); 59%-67% with HaCaT cells (setting [5]); 48%-55% in the series on HaCaT cells (setting [6]); 44%-51% in the series with HaCaT cells (setting [7]). Besides, the “Cell Survival Rate (increased percentage of cell survival compared with the Group of 5-FU)” value in the series with HaCaT cells (setting [8]) was 39%-46%.

With `Cc1cn([C@H]2C[C@H](OC(=O)C(C)c3cccc(C(=O)c4ccccc4)c3)[C@@H](CO)O2)c(=O)[nH]c1=O` (stereo partly drawn) [T50], the “Cell Survival Rate (increased percentage of cell survival compared with the Group of 5-FU)” value was 13%-20% in the series with HaCaT cells (selected compound final concentration 2 μM); 26%-33% with HaCaT cells (selected compound final concentration 4 μM); 36%-43% in the series on HaCaT cells (selected compound final concentration 8 μM); 47%-53% with HaCaT cells (selected compound final concentration 16 μM); 68%-76% in the series on HaCaT cells (selected compound final concentration 32 μM); 74%-82% in the series on HaCaT cells (selected compound final concentration 62.5 μM). In addition, the “Cell Survival Rate (increased percentage of cell survival compared with the Group of 5-FU)” value in the series on HaCaT cells (selected compound final concentration 125 μM) is recorded as 75%-85%; in the series with HaCaT cells (selected compound final concentration 250 μM), 75%-82%; with HaCaT cells (selected compound final concentration 500 μM), 65%-73%; in the series with HaCaT cells (selected compound final concentration 1000 μM), 58%-65%.
